From patent US20250129083A1, “IMIDAZOTETRAZINE COMPOUNDS AND TREATMENT OF TMZ-RESISTANT CANCERS” (THE BOARD OF TRUSTEES OF THE UNIVERSITY OF ILLINOIS, priority 2022, published 2025) come the findings set out here.

One series has as its system U87 GBM cell line. Kind of series: Cell viability assay (Alamar Blue, 7 days), U87. Type of series: cell-based, human. The conditions noted are these: Homo sapiens, 168 h. On the procedure:
(§1) Cell Culture and Reagents. All cell lines were grown in a 37° C., 5% CO2, humidified environment, in media containing 1% penicillin/streptomycin. Stable cell line generation of GL261 MGMT+ was purchased from Creative Biogene. Cell culture conditions are as follows: cell lines U87, T98G, and RKO were grown in EMEM with 10% FBS. D54, GL261, GL261 MGMT+, and U118MG cell lines were grown in DMEM with 10% FBS. HCT116 cells were grown in RMPI with 10% FBS. D341 Med cells were grown in EMEM with 20% FBS. Temozolomide (TMZ) was purchased from AK Scientific. TMZ analogues were synthesized as described below. Compounds were dissolved in DMSO (1% final concentration, Fisher Chemical) for cell culture studies.
(§2) Cell Viability Assays. Cells were harvested, seeded in a 96-well plate and allowed to adhere. After three hours, compound was added to each well in DMSO (1% final concentration). Cells were incubated for seven days (unless otherwise noted) before viability was assessed by the Alamar Blue assay. Raptinal (20 μM) was used as a dead control.
(§3) Plated 1500 c/w for GL261; 600 c/w for U87; 600 c/w for U118MG; 1500 c/w for GL261 MGMT+ Incubated ovn and added 1 μL of compound in DMSO the next day. Incubated over 7 days; added Alamar Blue to assess cell viability and used 10 μM Raptinal as dead control. Error is SEM, n=3.
A general note: The colour change of resazurin is a common sign of viable cells or microbes.

The subject of a further series is U118MG cells. Kind of series: Cell viability assay (Alamar Blue, 7 days), U118MG. Type of series: cell-based. The conditions noted are these: Homo sapiens, U-118-MG, 168 h, MGMT (+) MMR (+), 600 c/w, SEM, n=3. On the procedure:
as §1, §2, §3

The test system of a further series is HCT116 cells. In words: Cell viability assay (Alamar Blue, 7 days), HCT116. Format: cell-based. As to conditions: Homo sapiens, HCT-116, 168 h. As to the method:
as §1, §2

The test system of series [1] is RKO colon cancer cell line. In words: Cell viability assay (Alamar Blue, 7 days), RKO. The conditions noted are these: 168 h. Type of series: cell-based. As to the method: as §1, §2
For series [2], the system named is D341 Med medulloblastoma cell line. In words: Cell viability assay (Alamar Blue, 7 days), D341 Med. As to conditions: Homo sapiens, 168 h, MGMT (+)/MMR (−), 7 day. Type of series: cell-based. As to the method:
as §1, §2

The next series deals with U87 cells. In words: Killing kinetics study. Format: cell-based, human. On the procedure:
FIG. 2A-F. (A) 7 day IC50 values (M) of compound 10 and CPZ in an expanded panel of GBM cell lines. Cell viability was assessed via the Alamar Blue assay, n≥3, error is SEM. (B-E) 7 day dose-response curves of TMZ and CPZ in cell lines with variable MGMT and MMR status. Error is SEM, n≥3. (F) Killing kinetics of CPZ compared to TMZ in the U87 cell line. Cells were treated with compound once and viability was assessed every 24 hours via Alamar Blue assay. Error is SEM, n≥2.
Killing Kinetics Study. U87 cells were seeded in seven 96 well plates starting at 19,200 cells/well (for 24 hour time point) and serially diluted by two-fold for each subsequent 24 hour time point. At each time point, cell viability was assessed via Alamar Blue assay.

Series [3] deals with genomic DNA of GL261 cells. Kind of series: Quantitation of O6-guanine DNA adducts in cells, GL261. Format: cell-based, mouse. As to conditions: 100, 300, or 500 μM, 8 hours; LC-MS/MS. As to the method: (§4) Importantly, because CPZ was designed to release a different active species than TMZ, the alkylation pattern in a cellular context is likely different. Therefore, to assess if alkylation still occurs with CPZ, a DNA alkylation assay was performed. GL261 cells were treated with 100, 300, or 500 μM TMZ or CPZ for 8 hours after which the cells were harvested and genomic DNA was extracted and subsequently hydrolyzed to constituent deoxyribonucleosides. LC-MS/MS analysis was employed to quantify the amount of O^6-methyl-2′-deoxyguanosine (O^6-Me-dG) or O^6-propargylated-2′-O^6-deoxyguanosine (O^6-Prop-dG) in each sample.
(§5) Quantitation of O^6-guanine DNA Adducts in Cells. GL261, A172, or D54 cells were plated at 1×10^6 c/w in a 6-well plate before they were treated with compound at the indicated concentration (1% final concentration DMSO). After incubation for the indicated time, the cells were harvested and pelleted. Genomic DNA was extracted using the DNeasy Blood & Tissue Kit (Qiagen, ID: 69504). DNA was then precipitated using the following procedure: 1/10 v/v […] sodium acetate (pH 5.2) and 2.5× v/v ethanol was added to each sample which was then kept at −80° C. for 1 h. […] Hydrolyzed samples were then submitted for LC-MS/MS quantitation along with a synthetic standard. Samples were analyzed with a 5500 QTRAP LC/MS/MS system (AB Sciex) with a 1200 series HPLC system (Agilent).

Series [4] concerns genomic DNA of A172 cells. Kind of series: Quantitation of O6-guanine DNA adducts in cells, A172. The conditions noted are these: MGMT-negative; LC-MS/MS. Type of series: cell-based. On the procedure: as §4, §5
Series [5] concerns S. typhimurium TA100 strain. In words: Ames test, TA100. Type of series: cell-based. As to conditions: 30 μM; for Ames test revertant (mutated) colonies, TA100: 5 days, no S9 activation. On the procedure: Next, we measured the mutagenicity of CPZ versus TMZ. TMZ and other DNA methylating chemotherapies are known mutagens, inducing G:C→A:T mutations due to erroneous recognition of O^6-methylguanine. […] CPZ and TMZ (at 30 μM) were also assessed in the E. coli WP2 uvrA pKM101 strain, which is considered one of the more sensitive Ames tester strains available.
Ames Test. Compounds were assessed at the indicated concentrations in the TA100 tester strain using the Muta-ChromoPlate 96-well microplate version of the Ames test (Environmental Bio-Detection Products, Prod. No. 5051) according to manufacturer's instructions. In brief, TA100 S. typhimurium bacteria were grown overnight and plated with compound, growth medium, and indicator (no S9 activation) in 96 well plates. Bacteria were incubated for 5 days before the number of wells per 96 well plate containing revertant colonies were identified colorimetrically.

Series [6] is described as follows: Maximum tolerated dose / tolerability in mice. Type of series: in vivo. The conditions noted are these: in vivo, 66 mg/kg, once per day over 5 days.
The nature of another series: in vivo. The conditions noted are these: CD-1 IGS, mouse, brain and serum, iv, 25 mg/kg.
The mark [7] stands for this setting: MGMT (−) MMR (+), 600 c/w, SEM, n=3, read-out: Activity, U87.
[8] abbreviates: MGMT (−) MMR (−), 7 days, read-out: Activity, HCT116.
The mark [9] stands for this setting: MGMT (−)/MMR (−), 7 day, read-out: IC50, HCT116.
Setting [10] is: 7 days, read-out: Activity, RKO.
[11] abbreviates: MGMT (+)/MMR (−), 7 day, read-out: IC50, RKO.
The mark [12] stands for this setting: female, C57BL/6, mouse, ip, intraperitoneal, read-out: MTD, I.P.

As usually defined, the MTD is the highest dose tested that stayed within the study's limit of toxicity. Broadly, the Kp is the ratio of the level in a tissue or fluid to that in plasma or blood.

Like-named read-outs stand apart in the source and are kept apart here.

Protocol for in vivo: Biodistribution and Toxicity Studies. […] Brain tissue and blood were collected from each mouse and immediately acidified to prevent prodrug degradation. The concentration of each compound in the serum (FIG. 4A) and brain (FIG. 4B) were quantified by LC-MS/MS.
CD-1 IGS mice were administered compound in 5% DMSO, 10% Tween-20, and 85% SPE-PCD in sterile water (30% w/v) at 25 mg/kg via lateral tail vein injection. Fifteen minutes post injection, mice were sacrificed and blood was collected by lacerating the right auricle with iris scissors. An 18 gauge angiocatheter was inserted through the left ventricle, and all residual circulatory volume was removed by perfusing 0.9% saline solution via an analog peristaltic pump. Blood samples were immediately centrifuged at 13,000 rcf for five minutes and the supernatant collected and acidified with 8.5% aqueous H3PO4. Brains were harvested from the cranial vault, acidified with 0.3% aqueous H3PO4 and flash frozen. Homogenized brain samples were centrifuged twice at 13,000 rcf for ten minutes and supernatant and tissue debris were separated. The resultant supernatant was analyzed, along with plasma, by LC-MS/MS to determine compound concentrations.

For the compound `C#CCn1nnc2c(Cl)ncn2c1=O` [CPZ, 8-chloro-3-(prop-2-yn-1-yl)imidazo[5,1-d][1,2,3,5]tetrazin-4(3H)-one], the IC50 in the series on U87 GBM cell line (setting [7]) is 16 ± 6 µM; with U118MG cells, 17 ± 1 µM; in the series with HCT116 cells (setting [8]) it was 14 ± 16 µM; with HCT116 cells (setting [9]), 14 µM; in series [1] (setting [10]) it was 10 ± 1 µM; in series [1] (setting [11]), 10 µM. In series [2], the IC50 was determined as 8 µM. Further, the “Time to near peak threshold of cell death” value in the series on U87 cells (treated once, viability every 24 hours) is ≤ 72 h. Besides, the “O6-alkyl-2′-deoxyguanosine adducts (O6-Me-dG for TMZ, O6-Prop-dG for CPZ), GL261” value in [3] was “no detection of O^6-Prop-dG adducts”. The “O6-dG alkylation adducts, A172” value in series [4] is “did not harbor measurable levels of the propargyl adduct”. In addition, the “Mutagenicity, TA100” value in [5] is listed as “non-mutagenic”. In addition, the “Ames test revertant (mutated) colonies, TA100” value in series [5] was “no revertant colonies”. Moreover, the MTD at 5 days in [6] (setting [12]) was 66 mg/kg. Further, the Kp at 15 min in the series “in vivo” stood at 1.2 ± 0.2.
For `Cn1nnc2c(C(N)=O)ncn2c1=O` [TMZ, temozolomide, reference compound], the IC50 was 51 ± 8 µM in the series on U87 GBM cell line (setting [7]); ~50 µM in the series on U87 GBM cell line (MGMT (−), Alamar Blue, error SEM, n ≥ 3, read-out: Seven-day IC50, U87); 322 ± 7 µM in the series on U118MG cells; 840 ± 30 µM in the series with HCT116 cells (setting [8]); > 800 µM in the series on HCT116 cells (setting [9]); > 1000 µM in series [1] (setting [10]). The IC50 in series [1] (setting [11]) is > 1000 µM; in series [2], 460 µM. For the same compound, the “Time to induce cell death in culture” value in the series on U87 cells (at 100 μM) is 5 to 10 days. Besides, in series [3], the “O6-alkyl-2′-deoxyguanosine adducts (O6-Me-dG for TMZ, O6-Prop-dG for CPZ), GL261” value is “clear dose-dependent increase”. Moreover, the “O6-dG alkylation adducts, A172” value in series [4] is “dose-dependent increase in methyl adducts”. For the same compound, the “Mutagenicity, TA100” value in [5] is given as “mutagenic”. Further, in series [5], the “Ames test revertant (mutated) colonies, TA100” value is given as 35/96. For the same compound, the MTD at 5 days in [6] (setting [12]) amounted to 66 mg/kg; in series [6] (mouse, intravenous, read-out: MTD, I.V.) it was 66 mg/kg. Also, the partition ratio (Kp) at 15 min in the series “in vivo” is 0.08 ± 0.01.
